Tested on: PDC KRAS tumor spheroids with HUVEC/MSC, viability
Assay: Anticancer human tumor 349418-098-R-PDC patient-derived lung adenocarcinoma cell line growth inhibition [KRAS2]
Details: for IC50: curve of first compound; for viability, T/C: stronger effect = lower value
Source text: Multicellular complex tumor spheroid response to RAS pathway inhibitors in combination with a targeted agents in patient-derived cell lines with oncogenic KRAS variants from multiple cancer types
A high-throughput screen of multi-cell type tumor spheroids was designed to identify active combinations of targeted small molecules and KRAS pathway inhibitors. Complex spheroids include a stromal component modeled by human endothelial cells (HUVEC) and fibroblasts modeled by human mesenchymal stem cells (MSCs). The concentration ranges selected for each drug and investigational agent were based upon clinically achievable concentrations if the clinical Cmax of the agent was known.
Compounds. The drugs and investigational agents: BI-3406 (NSC825286), BAY-293 (NSC824723), batoprotafib (TNO155; NSC825523), sotorasib (AMG 510; NSC818433), MRTX1257 (NSC819558), elimusertib (BAY 1895344; NSC800525), molibresib (GSK525762; NSC774829), temuterkib (LY3214996; NSC803410), venetoclax (NSC766270), alisertib (NSC759677), olaparib (NSC753686), talazoparib (NSC767125), erdafitinib (NSC781556), ipatasertib (NSC767898), cabozantinib (NSC761068), nintedanib (NSC756659), abemaciclib (NSC768073), docetaxel (NSC628503), trametinib (NSC758246), and sapanisertib (NSC764658) were obtained from the National Cancer Institute (NCI) Developmental Therapeutics Program Chemical Repository. The FDA-approved anticancer drug set is available from the Developmental Therapeutics Program. […] The stock solutions were prepared in dimethyl sulfoxide (DMSO, Sigma-Aldrich, St. Louis, MO, cat. D2650) at 800-fold the tested concentration and stored at -70 degrees C prior to their use. All drugs and investigational agents were tested over a range starting from a high concentration at or near the clinical Cmax and decreasing in half-log increments. If the clinical Cmax for an agent had not been determined, the highest concentration tested was 10 microM.
Cell Culture. All cells were maintained in an incubator at 37 degrees C and 5% CO2 with 95% humidity. The PDC lines were cultured according to standard operating procedures established by the NCI PDMR (https://pdmr.cancer.gov/sops/default.htm). Briefly, all PDCs were thawed and cultured in Matrigel-coated flasks prepared with a working solution of 1X Ham's F-12 nutrient mix, without supplementation (Invitrogen, Waltham, MA, cat. 11765054), 100 U/mL penicillin-streptomycin (Invitrogen, cat. 15140122), and 2.5% Matrigel (Corning Inc., Corning, NY, cat. 354248) for the first three passages. All PDCs were cultured in complete DMEM/F-12 media containing advanced DMEM/F-12 (Invitrogen, cat. 12634028), 4.9% defined fetal bovine serum, heat inactivated (HyClone Laboratories Inc., Logan, UT, cat. SH30070.03HI), 389 ng/mL hydrocortisone (Sigma-Aldrich, cat. H4001), 9.7 ng/mL human EGF recombinant protein (Invitrogen, cat. PHG0313), 23.4 microg/mL adenine (Sigma-Aldrich, cat. A2786), 97.3 U/mL penicillin-streptomycin (Invitrogen, cat. 15140122), 1.9 mM L-glutamine (Invitrogen, cat. 25030081), and 9.7 microM Y-27632 dihydrochloride (Tocris Bioscience, Bristol, United Kingdom, cat. 1254). The PDCs were cultured in complete DMEM/F12 media without 9.7 microM Y-27632 dihydrochloride for at least two passages prior to the screen. The established cell line HOP-62 was cultured in RPMI 1640 medium, HEPES (Invitrogen, cat. 22400105) with 10% defined fetal bovine serum (HyClone Laboratories Inc., cat. SH30070.03) and 2 mM L-glutamine (Invitrogen, cat. 25030081). The pooled donor HUVEC were cultured in endothelial cell growth medium 2 (PromoCell, Heidelberg, Germany, cat. C-22011) and the hMSC were cultured in mesenchymal stem cell growth medium 2 (PromoCell, cat. C-28009). For all experiments, HUVEC and hMSC were used at passages </=5, while the malignant cell lines were used at passages </=15. […]

[1] = second compound 0.0316 µM, first compound 0.01 µM
[2] = second compound 0.0316 µM, first compound 0.0316 µM
[3] = second compound 0.0316 µM, first compound 0.1 µM
[4] = second compound 0.0316 µM, first compound 0.316 µM
[5] = second compound 0.0316 µM, first compound 1 µM
[6] = second compound 0.0316 µM, first compound 3.16 µM
[7] = second compound 0.1 µM, first compound 0.01 µM
[8] = second compound 0.1 µM, first compound 0.0316 µM
[9] = second compound 0.1 µM, first compound 0.1 µM
[10] = second compound 0.1 µM, first compound 0.316 µM
[11] = second compound 0.1 µM, first compound 1 µM
[12] = second compound 0.1 µM, first compound 3.16 µM
[13] = second compound 0.316 µM, first compound 0.01 µM
[14] = second compound 0.316 µM, first compound 0.0316 µM
[15] = second compound 0.316 µM, first compound 0.1 µM
[16] = second compound 0.316 µM, first compound 0.316 µM
[17] = second compound 0.316 µM, first compound 1 µM
[18] = second compound 0.316 µM, first compound 3.16 µM
[19] = second compound 1 µM, first compound 0.01 µM
[20] = second compound 1 µM, first compound 0.0316 µM
[21] = second compound 1 µM, first compound 0.1 µM
[22] = second compound 1 µM, first compound 0.316 µM
[23] = second compound 1 µM, first compound 1 µM
[24] = second compound 1 µM, first compound 3.16 µM
[25] = second compound 3.16 µM, first compound 0.01 µM
[26] = second compound 3.16 µM, first compound 0.0316 µM
[27] = second compound 3.16 µM, first compound 0.1 µM
[28] = second compound 3.16 µM, first compound 0.316 µM
[29] = second compound 3.16 µM, first compound 1 µM
[30] = second compound 3.16 µM, first compound 3.16 µM
[31] = second compound 0.0316 µM, first compound 10 µM
[32] = second compound 0.1 µM, first compound 10 µM
[33] = second compound 0.316 µM, first compound 10 µM
[34] = second compound 1 µM, first compound 10 µM
[35] = second compound 3.16 µM, first compound 10 µM
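Also: spheroids exposed to compounds for seven days before readout.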

## CC(=O)OC12COC1CC(O)C1(C)C(=O)C(O)C3=C(C)C(OC(=O)C(O)C(NC(=O)OC(C)(C)C)c4ccccc4)CC(O)(C(OC(=O)c4ccccc4)C21)C3(C)C (stereo not given) + C=CC(=O)N1CCN(c2nc(OCC3CCCN3C)nc3c2CCN(c2cccc4cccc(C)c24)C3)CC1CC#N
Second compound 0.0316 µM
  IC50: < 10 nM
Second compound 0.1 µM
  IC50: < 10 nM
Second compound 0.316 µM
  IC50: < 10 nM
Second compound 1 µM
  IC50: < 10 nM
Second compound 3.16 µM
  IC50: < 10 nM
[1]
  viability, T/C: 12%
[2]
  viability, T/C: 20%
[3]
  viability, T/C: 16.5%
[4]
  viability, T/C: 17.8%
[5]
  viability, T/C: 24.9%
[6]
  viability, T/C: 23.5%
[7]
  viability, T/C: 13.5%
[8]
  viability, T/C: 12%
[9]
  viability, T/C: 15.2%
[10]
  viability, T/C: 17.2%
[11]
  viability, T/C: 21.1%
[12]
  viability, T/C: 18%
[13]
  viability, T/C: 10.8%
[14]
  viability, T/C: 14.2%
[15]
  viability, T/C: 12.8%
[16]
  viability, T/C: 14.6%
[17]
  viability, T/C: 18.3%
[18]
  viability, T/C: 18%
[19]
  viability, T/C: 9.34%
[20]
  viability, T/C: 12.5%
[21]
  viability, T/C: 12.2%
[22]
  viability, T/C: 11.6%
[23]
  viability, T/C: 14.8%
[24]
  viability, T/C: 17.5%
[25]
  viability, T/C: 12.8%
[26]
  viability, T/C: 14.4%
[27]
  viability, T/C: 19.9%
[28]
  viability, T/C: 20%
[29]
  viability, T/C: 19.5%
[30]
  viability, T/C: 24.3%

## CN(C)C/C=C/C(=O)Nc1cc2c(Nc3ccc(F)c(Cl)c3)ncnc2cc1O[C@H]1CCOC1 + C=CC(=O)N1CCN(c2nc(OCC3CCCN3C)nc3c2CCN(c2cccc4cccc(C)c24)C3)CC1CC#N
Second compound 0.0316 µM
  IC50: > 100 nM
Second compound 0.1 µM
  IC50: > 100 nM
Second compound 0.316 µM
  IC50: > 100 nM
Second compound 1 µM
  IC50: > 100 nM
Second compound 3.16 µM
  IC50: < 0.316 nM
Second compound 0.0316 µM, first compound 0.000316 µM
  viability, T/C: 102%
Second compound 0.0316 µM, first compound 0.001 µM
  viability, T/C: 101%
Second compound 0.0316 µM, first compound 0.00316 µM
  viability, T/C: 85%
[1]
  viability, T/C: 105%
[2]
  viability, T/C: 102%
[3]
  viability, T/C: 87.2%
Second compound 0.1 µM, first compound 0.000316 µM
  viability, T/C: 101%
Second compound 0.1 µM, first compound 0.001 µM
  viability, T/C: 109%
Second compound 0.1 µM, first compound 0.00316 µM
  viability, T/C: 86.3%
[7]
  viability, T/C: 92.9%
[8]
  viability, T/C: 83.8%
[9]
  viability, T/C: 83.9%
Second compound 0.316 µM, first compound 0.000316 µM
  viability, T/C: 99.9%
Second compound 0.316 µM, first compound 0.001 µM
  viability, T/C: 99.8%
Second compound 0.316 µM, first compound 0.00316 µM
  viability, T/C: 94.6%
[13]
  viability, T/C: 94.9%
[14]
  viability, T/C: 82.1%
[15]
  viability, T/C: 84.4%
Second compound 1 µM, first compound 0.000316 µM
  viability, T/C: 84.5%
Second compound 1 µM, first compound 0.001 µM
  viability, T/C: 75.2%
Second compound 1 µM, first compound 0.00316 µM
  viability, T/C: 65.9%
[19]
  viability, T/C: 69.4%
[20]
  viability, T/C: 77.4%
[21]
  viability, T/C: 58.3%
Second compound 3.16 µM, first compound 0.000316 µM
  viability, T/C: 0.17%
Second compound 3.16 µM, first compound 0.001 µM
  viability, T/C: 0.19%
Second compound 3.16 µM, first compound 0.00316 µM
  viability, T/C: 0.17%
[25]
  viability, T/C: 0.17%
[26]
  viability, T/C: 1.41%
[27]
  viability, T/C: 0.2%

## COC(=O)c1ccc2c(C(=Nc3ccc(N(C)C(=O)CN4CCN(C)CC4)cc3)c3ccccc3)c(O)[nH]c2c1 + C=CC(=O)N1CCN(c2nc(OCC3CCCN3C)nc3c2CCN(c2cccc4cccc(C)c24)C3)CC1CC#N
Second compound 0.0316 µM
  IC50: 456 nM
Second compound 0.1 µM
  IC50: 320 nM
Second compound 0.316 µM
  IC50: 154 nM
Second compound 1 µM
  IC50: < 31.6 nM
Second compound 3.16 µM
  IC50: < 31.6 nM
[2]
  viability, T/C: 65.9%
[3]
  viability, T/C: 78.3%
[4]
  viability, T/C: 58.5%
[5]
  viability, T/C: 28.9%
[6]
  viability, T/C: 15.6%
[31]
  viability, T/C: 15%
[8]
  viability, T/C: 88.9%
[9]
  viability, T/C: 87.6%
[10]
  viability, T/C: 46.3%
[11]
  viability, T/C: 25.4%
[12]
  viability, T/C: 9.49%
[32]
  viability, T/C: 9.82%
[14]
  viability, T/C: 75.2%
[15]
  viability, T/C: 51%
[16]
  viability, T/C: 42.3%
[17]
  viability, T/C: 30.4%
[18]
  viability, T/C: 10.6%
[33]
  viability, T/C: 6.76%
[20]
  viability, T/C: 44.8%
[21]
  viability, T/C: 24.2%
[22]
  viability, T/C: 27.8%
[23]
  viability, T/C: 23.8%
[24]
  viability, T/C: 0.91%
[34]
  viability, T/C: 0.96%
[26]
  viability, T/C: 0.1%
[27]
  viability, T/C: 0.08%
[28]
  viability, T/C: 0.07%
[29]
  viability, T/C: 0.05%
[30]
  viability, T/C: 0.03%
[35]
  viability, T/C: 0.05%

## O=C(c1cc(Cc2n[nH]c(=O)c3ccccc23)ccc1F)N1CCN(C(=O)C2CC2)CC1 + C=CC(=O)N1CCN(c2nc(OCC3CCCN3C)nc3c2CCN(c2cccc4cccc(C)c24)C3)CC1CC#N
Second compound 0.0316 µM
  IC50: 189 nM
Second compound 0.1 µM
  IC50: 168 nM
Second compound 0.316 µM
  IC50: 1190 nM
Second compound 1 µM
  IC50: 353 nM
Second compound 3.16 µM
  IC50: < 31.6 nM
[2]
  viability, T/C: 86.9%
[3]
  viability, T/C: 75.7%
[4]
  viability, T/C: 29.1%
[5]
  viability, T/C: 21.3%
[6]
  viability, T/C: 17.5%
[31]
  viability, T/C: 15.6%
[8]
  viability, T/C: 81.2%
[9]
  viability, T/C: 50.7%
[10]
  viability, T/C: 50.7%
[11]
  viability, T/C: 24.5%
[12]
  viability, T/C: 20.9%
[32]
  viability, T/C: 17.5%
[14]
  viability, T/C: 91.6%
[15]
  viability, T/C: 88%
[16]
  viability, T/C: 68.2%
[17]
  viability, T/C: 62.1%
[18]
  viability, T/C: 23.1%
[33]
  viability, T/C: 18.9%
[20]
  viability, T/C: 51.9%
[21]
  viability, T/C: 55.5%
[22]
  viability, T/C: 52.5%
[23]
  viability, T/C: 34.6%
[24]
  viability, T/C: 26.7%
[34]
  viability, T/C: 20.6%
[26]
  viability, T/C: 0.11%
[27]
  viability, T/C: 0.12%
[28]
  viability, T/C: 0.11%
[29]
  viability, T/C: 0.11%
[30]
  viability, T/C: 0.12%
[35]
  viability, T/C: 1.16%
